Test results published in patent publication US9051320B1, “Methods for the treatment of metabolic disorders by a selective small molecule autotaxin inhibitor” (PharmAkea, Inc., priority 2014, dated 2015).
Structures can show the parent of a compound that is named as a salt. Where two headings read alike, the source gives them in different places.

Key:
[1] = test system: mice fed a high fat diet (HFD); assay: Glucose tolerance test in mice fed a high fat diet; type: in vivo, C57B16/J male mice; conditions: for baseline glucose (fasting blood glucose): sodium salt; for total blood glucose AUC: after i.p. 1 g/kg glucose
Procedure: C57B16/J male mice were fed a normal diet until 9-10 weeks of age. […] For determination of blood glucose, mice were administered test compound orally in 0.5% methocel once or twice daily for several days prior to the glucose challenge. Compounds were administered as a sodium salt. On the day of the glucose tolerance test (GTT) mice were fasted for 6-8 hours and a last dose of test compound administered orally 1-3 hours before the intraperitoneal (i.p.) injection of 1 g/kg D-glucose (Sigma). Blood from the tail vein was sampled before the glucose load (baseline glucose) and every 15-30 min over the next 120 min after the glucose challenge to monitor blood glucose concentration. Blood glucose was quantified using a glucose meter (Accu-Chek, Roche Diagnostics or AlphaTRAK, Abbott Animal Health) and plotted vs. time. Total blood glucose area under the curve (AUC) after the i.p. glucose challenge was calculated from the time plot using GraphPad Prism6.

human autotaxin (ATX) = target: T1, human autotaxin (ATX) (Homo sapiens, UniProt Q13822); assay: Human autotaxin assay (choline release from LPC, Hep3B conditioned media); type: biochemical; conditions: LPC 14:0 100 uM
T1 construct: ATX activity is assayed in concentrated conditioned media from Hep3B human hepatocellular carcinoma cells; endogenous in cells; host or cells: Hep3B human hepatocellular carcinoma cells (20-fold concentrated conditioned medium)
Procedure: ATX activity is assayed in concentrated conditioned media from Hep3B human hepatocellular carcinoma cells by measuring the amount of choline released from the substrate, lysophosphatidylcholine (LPC) as it is cleaved to LPA. Conditioned media is collected from confluent Hep3B cells and concentrated 20-fold using Centriprep-30 filter devices (Millipore).

[2] = test system: mice fed a normal diet or a high fat diet; conditions: cited from earlier work; for glucose tolerance: injection
[3] = 30 mg/kg oral twice daily for two days and once on the day of sampling
[4] = 30 mg/kg oral twice daily for two days prior to sampling and once on the day of sampling
[5] = chronic treatment, mice fed a high fat diet

Compound: Cc1c(Sc2cccc(C(=O)O)c2F)c2ccc(Cl)c(F)c2n1CC(=O)N1CCC(O)(C(F)(F)F)C1 (single isomer, unassigned) [Compound E]
- baseline glucose (fasting blood glucose) ([1]; 30 mg/kg oral once daily for 5 days prior to sampling): decrease

Compound: O=C(O)CCN1C(=O)[C@@H]2Cc3c(n(Cc4ccc(F)cc4)c4ccccc34)CN2C1=O [Compound A, (S)-3-(6-(4-fluorobenzyl)-1,3-dioxo-5,6,11,11a-tetrahydro-1H-imidazo [1′,5′:1,6]pyrido[3,4-b]indol-2(3H)-yl)propanoic acid]
- total blood glucose AUC [1, 3]: decrease
- baseline glucose (fasting blood glucose) [1, 4]: decrease

Compound: CCCn1cc(-n2c(Cl)c(Sc3cccc(C(=O)O)c3F)c3ccc(Cl)c(F)c32)cn1 [Compound C, 3-((2,6-dichloro-7-fluoro-1-(1-propyl-1H-pyrazol-4-yl)-1H-indol-3-yl)thio)-2-fluorobenzoic acid]
- total blood glucose AUC ([1]; 15 mg/kg oral twice daily for two days and once on the day of sampling): decrease
- baseline glucose (fasting blood glucose) ([1]; 15 mg/kg oral twice daily for two days prior to sampling and once on the day of sampling): decrease

Compound: CCn1cc(-n2c(C3CC3)c(Sc3cccc(C(=O)O)n3)c3ccc(Cl)c(F)c32)cn1 [Compound D, 6-((6-chloro-2-cyclopropyl-1-(1-ethyl-1H-pyrazol-4-yl)-7-fluoro-1H-indol-3-yl)thio)picolinic acid sodium salt]
- total blood glucose AUC [1, 3]: decrease
- baseline glucose (fasting blood glucose) [1, 4]: decrease
- IC50 (human autotaxin (ATX)): < 0.5 µM

Compound: Cc1noc(-c2ccc(CSCCC(=O)O)cc2)c1NC(=O)OC(C)c1ccccc1Cl (centres unmarked) [Ki16425]
- capacity of a muscle to oxidize glucose [2, 5]: increases
- fasting insulin levels [2, 5]: improves
- insulin sensitivity [2, 5]: improves
- liver glycogen storage [2, 5]: increases
- glucose tolerance ([2]; mice fed a high fat diet): does significantly improve
- glucose tolerance ([2]; mice fed a normal diet): does not significantly improve
